From US20100227921A1, “AMINO ACID AND PEPTIDE CARBAMATE PRODRUGS OF […] USES THEREOF” (SHIRE LLC, priority 2009, published 2010)

Key:
[1] = Stability of tapentadol valine carbamate in simulated gastric and intestinal fluids, water and pH 10 buffer; format: physicochemical
[2] = 75 mg immediate release dosage; Afilalo et al. 2008; cited from earlier work

Structure (SMILES)	Simulated gastric fluid (pH 1.1): % remaining after 2 h/37° C. ([1]; USP simulated gastric fluid pH 1.1, 2 h, 37° C., HPLC) [%]	Simulated intestinal fluid (pH 6.8): % remaining after 2 h/37° C. ([1]; USP simulated intestinal fluid pH 6.8, 2 h, 37° C., HPLC) [%]	Distilled water (pH 5.9): % remaining after 2 h/20° C. ([1]; distilled water pH 5.9, 2 h, 20° C.) [%]	pH 10.0 buffer: % remaining after 2 h/20° C. ([1]; pH 10.0 buffer, 2 h, 20° C.) [%]	stability under the conditions existing in the GI tract ([1]; summary in words of Table 2)	patients with nausea/vomiting [2]	treated patients with constipation [2] [%]
CC[C@H](c1cccc(OC(=O)N[C@H](C(=O)O)C(C)C)c1)[C@H](C)CN(C)C (racemic) [Tapentadol valine carbamate, 2-[3-(3-Dimethylamino-1-ethyl-2-methyl-propyl)-phenoxycarbonylamino]-3-methyl-butyric acid]	100	100	100	82	stable	–	–
CC[C@@H](c1cccc(O)c1)[C@@H](C)CN(C)C (racemic) [Tapentadol, (−)-(1R,2R)-3-(3-dimethyl-amino-1-ethyl-2-methyl-propyl)-phenol]	–	–	–	–	–	30-35%	~11
